{
  "source": "paper PMC8803441",
  "about": "“Identification of 20(S)-Ginsenoside Rh2 as a Potential EGFR Tyrosine Kinase Inhibitor” (Oxidative Medicine and Cellular Longevity, 2022)",
  "molecular_target": "T1, Epidermal growth factor receptor (EGFR) kinase (Homo sapiens, UniProt P00533)",
  "T1 construct": "EGFR protein (GST-tagged)",
  "T1 sequence (P00533 25-1210)": "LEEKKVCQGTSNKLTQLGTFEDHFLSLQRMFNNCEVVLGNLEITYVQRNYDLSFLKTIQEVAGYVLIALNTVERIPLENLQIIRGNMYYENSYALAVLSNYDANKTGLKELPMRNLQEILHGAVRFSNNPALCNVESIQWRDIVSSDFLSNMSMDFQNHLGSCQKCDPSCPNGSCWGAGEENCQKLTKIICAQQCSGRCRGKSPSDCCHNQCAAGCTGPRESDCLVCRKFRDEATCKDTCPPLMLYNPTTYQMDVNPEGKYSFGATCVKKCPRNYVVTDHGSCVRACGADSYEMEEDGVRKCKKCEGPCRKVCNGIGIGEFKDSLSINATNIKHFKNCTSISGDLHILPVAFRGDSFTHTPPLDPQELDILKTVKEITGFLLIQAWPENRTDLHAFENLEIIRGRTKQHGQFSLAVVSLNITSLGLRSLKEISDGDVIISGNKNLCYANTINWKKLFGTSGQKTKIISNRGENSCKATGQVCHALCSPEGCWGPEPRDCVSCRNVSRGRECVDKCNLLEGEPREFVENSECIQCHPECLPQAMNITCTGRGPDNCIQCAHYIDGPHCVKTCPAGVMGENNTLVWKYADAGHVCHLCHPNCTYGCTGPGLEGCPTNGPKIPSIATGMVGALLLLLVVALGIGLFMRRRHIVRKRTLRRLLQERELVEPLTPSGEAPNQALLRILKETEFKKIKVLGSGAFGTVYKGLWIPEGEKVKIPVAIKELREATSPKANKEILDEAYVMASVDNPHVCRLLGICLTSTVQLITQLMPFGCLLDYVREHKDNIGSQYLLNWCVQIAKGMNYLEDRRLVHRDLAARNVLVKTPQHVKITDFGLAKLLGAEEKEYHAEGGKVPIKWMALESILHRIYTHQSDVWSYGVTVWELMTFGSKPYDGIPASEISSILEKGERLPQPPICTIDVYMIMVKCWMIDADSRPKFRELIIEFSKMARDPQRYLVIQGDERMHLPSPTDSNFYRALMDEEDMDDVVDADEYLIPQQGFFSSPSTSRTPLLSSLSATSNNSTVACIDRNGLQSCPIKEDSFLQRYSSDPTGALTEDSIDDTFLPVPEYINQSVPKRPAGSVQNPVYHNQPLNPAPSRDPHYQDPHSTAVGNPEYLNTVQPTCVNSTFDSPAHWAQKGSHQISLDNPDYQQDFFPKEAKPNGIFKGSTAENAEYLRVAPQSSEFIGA",
  "assay": "HTRF KinEASE-TK kinase assay with GST-tagged EGFR",
  "type": "biochemical",
  "data": [
    {"smiles": "CC(C)=CCC[C@](C)(O)[C@H]1CC[C@]2(C)[C@@H]1[C@H](O)C[C@@H]1[C@@]3(C)CC[C@H](O[C@@H]4O[C@H](CO)[C@@H](O)[C@H](O)[C@H]4O)C(C)(C)[C@@H]3CC[C@]12C", "note": "[20(S)-ginsenoside Rh2]", "values": [
      {"measurement": "IC50", "value": "2.78 ± 0.16", "unit": "µM"}
    ]}
  ]
}
